Measured values taken from patent US10314820B2, “Imidazole-based heterocyclic compounds” (priority 2014, dated 2019).

What was measured:
[1] = test system: platensimycin-resistant Staphylococcus aureus (from MRSA, COL); assay: microbe, parasite or virus in culture; assay type: cell-based; details: read-out: MIC for the resistant strain
[2] = test system: Streptococcus pneumoniae (Chester, ATCC49619); assay: Broth microdilution MIC assay, Streptococcus pneumoniae; assay type: cell-based; details: Table AA; MIC score
[3] = test system: Staphylococcus aureus MSSA (Newman); assay: Broth microdilution MIC assay, MSSA; assay type: cell-based; details: Table AA; MIC score
[4] = test system: Staphylococcus aureus MRSA (COL); assay type: cell-based; details: Table AA; MIC score
[5] = test system: Enterococcus faecium (AGR15, ATCCBAA-2127); assay: Broth microdilution MIC assay, Enterococcus faecium; assay type: cell-based; details: Table BB; MIC score
[6] = test system: Escherichia coli TolC mutant strain ΔtolC; assay type: cell-based; details: Table BB; MIC score
[7] = test system: vancomycin-resistant Staphylococcus aureus (from MRSA, COL); assay: microbe, parasite or virus in culture; assay type: cell-based; details: Table BB; MIC score; vancomycin-resistant MRSA
[8] = test system: linezolid-resistant Staphylococcus aureus (from MRSA, COL); assay: microbe, parasite or virus in culture; assay type: cell-based; details: Table BB; MIC score; linezolid-resistant MRSA
[9] = test system: Human hepatocytes (HepaRG cells); assay: Human cytotoxicity assay in vitro (CellTiter-Glo), hepatocytes; assay type: cell-based; details: hepatocyte cytotoxicity score; 24 h exposure
[10] = test system: Human keratinocytes (HaCaT cells); assay: Human cytotoxicity assay in vitro (CellTiter-Glo), keratinocytes; assay type: cell-based; details: keratinocyte cytotoxicity score; 24 h exposure
[11] = test system: moenomycin-resistant Staphylococcus aureus (from MRSA, COL); details: Table BB, MIC score
[12] = test system: MRSA (COL) resistant to triclosan; assay: microbe, parasite or virus in culture; details: Staphylococcus aureus, read-out: MIC values of resistant strains

## CC12C[C@@]34C=CC(=O)[C@@](C)(CCC(=O)Nc5c(O)ccc(C(=O)O)c5O)C3[C@H](CC1C4)O2 (stereo partly drawn) [platensimycin]
[1]
  MIC: > 10 µg/mL

## CN(C)Cc1[nH]c(-c2ccc(-c3ccccc3C(F)(F)F)o2)nc1-c1ccccc1 [Compound 70]
[2]
  Antibacterial activity Streptococcus pneumoniae: 3 (the compound has an MIC100 of 2-5 μg/ml)
[3]
  Antibacterial activity Staphylococcus aureus (MSSA): 1 (the compound has an MIC100 of 20-50 μg/ml or an MIC50 of <10 μg/ml)
[4]
  Antibacterial activity Staphylococcus aureus (MRSA): 1 (the compound has an MIC100 of 20-50 μg/ml or an MIC50 of <10 μg/ml)
[5]
  antibacterial activity EFm: 2 (the compound has an MIC100 of 11-20 μg/ml)
[6]
  antibacterial activity EC Δ: 3 (the compound has an MIC100 of 3-10 μg/ml)
[7]
  antibacterial activity MRSA strains with additional resistance to V: 1 (the compound has an MIC100 of 20-50 μg/ml or an MIC50 of <10 μg/ml)
[8]
  antibacterial activity MRSA strains with additional resistance to L: 1 (the compound has an MIC100 of 20-50 μg/ml or an MIC50 of <10 μg/ml)
[9]
  cytotoxicity cell line H: 3
[10]
  cytotoxicity cell line K: 2 (compounds causing>50% inhibition of cell viability at 25 μM)
[11]
  antibacterial activity MRSA strains with additional resistance to M: 1 (the compound has an MIC100 of 20-50 μg/ml or an MIC50 of <10 μg/ml)

## Oc1cc(Cl)ccc1Oc1ccc(Cl)cc1Cl [triclosan]
[12]
  MIC: > 20 µg/mL
